Experimental data: patent publication US12116636B2, “Methods for evaluating tumor cell spheroids using 3D microfluidic cell culture device” (Dana-Farber Cancer Institute, Inc., priority 2017, dated 2024)

Key:
[1] = tested on: CT26 spheroids (lacking immune cells); test: Cytokine profiling of cell line spheroids lacking immune cells; assay type: cell-based, murine; settings: Day 1, 3, 6 vs vehicle
Description: Fresh tumor specimens (murine and human patients) were received in media (DMEM) on ice and minced in a 10 cm dish (on ice) using sterile forceps and scalpel. Minced tumor was resuspended in DMEM (4.5 mM glucose, […] sodium pyruvate, 1:100 penicillin-streptomycin) (Coming CellGro, Manassas, VA)+10% FBS (Gemini Bio-Products, West Sacramento, CA), 100 U/mL collagenase type IV (Life Technologies, Carlsbad, CA), and 15 mM HEPES (Life Technologies, Carlsbad, CA), except for CT26 tumors that were prepared in RPMI. Samples were pelleted and resuspended in 10-20 mL media. Red blood cells were removed from visibly bloody samples using RBC Lysis Buffer (Boston Bio-Products, Ashland, MA). […]
Two multiplex assays were performed utilizing a bead-based immunoassay approach, the Bio-Plex Pro™ Human Cytokine 40-plex Assay (Cat #171AK99MR2) and Bio-Plex Pro™ Mouse Cytokine Panel 1, 23-plex (Cat #M60009RDPD) on a Bio-plex 200 system (Cat #171000201). […] Fold changes relative to the MDOT/PDOT control were calculated and plotted as log 2FC. Lower and upper limits of quantitation (LLOQ/ULOQ) were imputed from standard curves for cytokines above or below detection. […]

CT26 allograft = test: In vivo Compound 1 combination treatment, allograft; set-up: species or system Balb/c mice; settings: Compound 1 40 mg/kg oral daily + anti-PD-L1 10 mg/kg every 5 days
Description: (§1) Combination studies were performed by vivoPharm (Hummelstown, PA, USA). All procedures used in the performance of these studies were carried out in accordance with vivoPharm's Standard Operating Procedures, with particular reference to US_SOPvP_EF0314 “General Procedures for Efficacy Studies.” CT26 colon carcinoma cells (1×10^6 cells/mouse in 100 μL, passage 2-3) were re-suspended in serum-free DMEM and implanted in the upper right flank of 11-12 week old female Balb/c mice (Charles River Laboratories). Mice were randomized into four groups of 10 using a matched pair distribution method based on tumor size for CT26. Treatment was initiated 12 days post-inoculation with mean tumor volume at start of dosing of 125.85 mm^3. Vehicle or Compound 1 (40 mg/kg) was administered by oral gavage daily for 26 days and isotype control or a reverse chimera anti-PD-L1 cloned from literature reports (e.g., Deng, R. et al. MAbs (2016), the content of which is incorporated herein by reference in entirety) and placed into a mouse IgG1 framework (10 mg/kg) was administered every 5 days for a total of six doses. Investigators were not blinded to treatment groups. […] Mice were scarified on Day 13 and lung metastases were quantified (small≤1 mm, medium>1 mm and ≤3 mm, large>3 mm). No large lung metastases were detected.

CT26 and EMT6 cells = test: Re-implantation of CT26 and EMT6 cells after combination therapy (immunologic memory); assay type: in vivo, mice; settings: previously treated with anti-PD-L1 + Compound 1
Description: as §1

B16F10 lung metastases = test: B16F10 tail vein injection model, lung metastases; assay type: in vivo, mice; settings: Compound 1 40 mg/kg daily 13 days ± anti-PD-L1 10 mg/kg
Description: as §1

N#Cc1cc(-c2ncnc(Nc3ccc(N4CCN(C5COC5)CC4)cc3)n2)ccc1OC1CCOCC1 [Compound 1, 5-(4-((4-(4-(oxetan-3-yl)piperazin-1-yl)phenyl)amino)-1,3,5-triazin-2-yl)-2-((tetrahydro-2H-pyran-4-yl)oxy)benzonitrile]
immune suppressive cytokine elaboration by CT26 cell line spheroids [1]: effectively blocked | survival, CT26 allograft, combination vs Cmpd1 or anti-PD-L1 alone (CT26 allograft): longer survival | tumour control, CT26 allograft, combination vs Cmpd1 or anti-PD-L1 alone (CT26 allograft): greater tumour control | growth of reimplanted CT26 in mice with exceptional responses to combination therapy (CT26 and EMT6 cells): no growth | sensitization of B16F10 tail vein injection model (lung metastases) (B16F10 lung metastases): could not be sensitized
